From patent publication EP1161424B1, “NEW DIAZOLE DERIVATIVES AS SEROTONERGIC AGENTS” (Wyeth, priority 1999, dated 2000)

How the values were obtained:
human 5HT1A receptor [1] = target: T1, human 5HT1A receptor (Homo sapiens, UniProt P08908); experiment: 5-HT1A receptor binding assay ([3H] 8-OH-DPAT displacement); conditions: displacement of [3H] 8-OH-DPAT (1.5 nM) in CHO cells stably transfected with the human 5HT1A receptor
T1 construct: expressed in transfected cells; host or cells: CHO cells, stably transfected
T1 sequence (P08908 1-422): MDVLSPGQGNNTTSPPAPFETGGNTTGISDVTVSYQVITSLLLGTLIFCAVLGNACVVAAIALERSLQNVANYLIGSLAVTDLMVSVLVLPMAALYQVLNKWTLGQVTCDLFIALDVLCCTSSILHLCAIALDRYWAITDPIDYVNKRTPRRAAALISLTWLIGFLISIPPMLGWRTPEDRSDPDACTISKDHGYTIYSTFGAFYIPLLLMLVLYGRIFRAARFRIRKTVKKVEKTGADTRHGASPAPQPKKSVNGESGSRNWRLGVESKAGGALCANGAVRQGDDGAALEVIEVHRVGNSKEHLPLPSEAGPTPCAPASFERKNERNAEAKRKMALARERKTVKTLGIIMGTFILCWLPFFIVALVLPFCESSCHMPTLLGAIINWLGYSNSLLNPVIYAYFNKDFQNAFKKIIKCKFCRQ
Protocol: 5-HT1A Receptor Binding Assay
High affinity for the serotonin 5-HT1A receptor was established by testing the claimed compound's ability to displace [^3H] 8-OH-DPAT binding in CHO cells stably transfected with the human 5HT1A receptor. Stably transfected CHO cells are grown in DMEM containing 10% heat inactivated FBS and non-essential amino acids. Cells are scraped off the plate, transferred to centrifuge tubes, and washed twice by centrifugation (2000 rpm for 10 min., 4°C) in buffer (50 mM Tris pH 7.5). The resulting pellets are aliquoted and placed at -80°C. On the day of assay, the cells are thawed on ice and resuspended in buffer. The binding assay is performed in a 96 well microtiter plate in a total volume of […]. Non-specific binding is determined in the presence of […] 5-HT, final ligand concentration is 1.5 nM. Following a 30 minute incubation at room temperature, the reaction is terminated by the addition of ice cold buffer and rapid filtration through a GF/B filter presoaked for 30 minutes in 0.5% PEI. Compounds are initially tested in a single point assay to determine percent inhibition at […], and Ki values are determined for the active compounds.

human 5HT1A receptor [2] = target: T1, human 5HT1A receptor; experiment: 5-HT1A receptor intrinsic activity assay (cAMP, RIA); assay type: cell-based; conditions: for cAMP Emax: agonist activity: reversal of forskolin-stimulated cAMP in CHO cells with human 5-HT1A receptor, % printed only; for IC50: antagonist, reversal of agonist induced activity, compounds with Emax = 0 %, preincubated 20 minutes before agonist and forskolin
Protocol: 5-HT1A Receptor Intrinsic Activity Assay
The intrinsic activity of compounds of the present invention was established by testing the claimed compounds ability to reverse the stimulation of cyclic adenosinemonophosphate (cAMP) in CHO cells stably transfected with the human 5-HT1A receptor. Stably transfected CHO cells were grown in DMEM containing 10% heat inactivated FBS and non-essential amino acids. The cells are plated at a density of […] per well in a 24 well plate and incubated for 2 days in a CO2 incubator. On the second day, the media is replaced with 0.5 mL treatment buffer (DMEM + 25 mM HEPES, 5 mM theophylline, […] pargyline) and incubated for 10 minutes at 37°C. Wells are treated with forskolin ([…]) followed immediately by the test compound ([…] for initial screen) and incubated for an additional 10 minutes at 37°C. The reaction is terminated by removal of the media and addition of 0.5 mL ice cold assay buffer (supplied in the RIA kit). Plates are stored at -20°C prior to assessment of cAMP formation by RIA. EC50 values are determined for the active test compounds. Compounds shown to have no agonist activities (Emax = 0 %) are further analyzed for their ability to reverse agonist induced activity. In separate experiments, 6 concentrations of antagonist are preincubated for 20 minutes prior to the addition of agonist and forskolin. Cells are harvested as described above. The cAMP kit is supplied by Amersham and the RIA is performed as per kit instructions, and calculations of IC50 performed by GraphPad Prism.

SMILES | Ki (human 5HT1A receptor [1]) [nM] | cAMP Emax (human 5HT1A receptor [2]) [%] | IC50 (human 5HT1A receptor [2]) [nM] | EC50 (human 5HT1A receptor [2]; agonist, reversal of forskolin-stimulated cAMP in transfected CHO cells) [nM]
COc1nsnc1N1CCN(C[C@@H](Cc2cccnc2)NC(=O)C2(C)CCCCC2)CC1 [Compound 11, 1-Methylcyclohexanecarboxylic acid {(1R)-2-[4-(4-methoxy-[1,2,5]thiadiazol-3-yl)-piperazin-1-yl]-1-pyridin-3-ylmethylethyl} amide] | 3.04 | 0.000 | 113 | –
CN(C(=O)C1CCCCC1)[C@H](Cc1ccccc1)CN1CCN(c2nsnc2Cl)CC1 [Compound 7] | 4.55 | 0.00 | 49.3 | –
O=C(N[C@@H](Cc1ccccc1)CN1CCN(c2nsnc2Cl)CC1)c1ccncc1 [Compound 5] | 425 | – | – | –
COc1nsnc1N1CCN(CC(Cc2ccccc2)N(C)C(=O)c2ccccc2)CC1 (centres unmarked) [Compound 9, N-{1-Benzyl-2-[4-(4-methoxy-[1,2,5]thiadiazol-3-yl)piperazin-1-yl]ethyl]-N-methylbenzamide] | 9.87 | – | – | –
O=C(N[C@@H](Cc1ccccc1)CN1CCN(c2nsnc2Cl)CC1)C1CCCCC1.O=C(O)/C=C/C(=O)O [Compound 4, Cyclohexanecarboxylic acid {(1S)-1-benzyl-2-(4-(4-chloro[1,2,5}thiadiazol-3-yl)piperazin-1-yl]ethyl}amide fumarate] | 0.84 | 93.00 | – | 4.61
COc1nsnc1N1CCN(C[C@@H](Cc2ccccc2)N(C)C(=O)C2CCCCC2)CC1 [Compound 8, Cyclohexanecarboxylic acid {(1R)-1-benzyl-2-[4-(4-methoxy-[1,2,5]thiadiazol-3-yl)-piperazine-1-yl]ethyl}methyl amide] | 1.55 | 0.00 | 72.7 | –
